Measurements published in patent US8586739B2, “Heterocyclic compounds and their uses” (Amgen Inc., priority 2007, dated 2013).

Test system: P110β
Assay: not given
Settings: beta versus alpha; cited from earlier work

SMILES	selective over alpha
Cc1cc(C(C)Nc2ccccc2)c2nc(N3CCOCC3)cc(=O)n2c1 (centres unmarked) [TGX-221]	more than 500 fold

Same assay, conditions: beta versus delta; cited from earlier work

SMILES	selective over delta
Cc1cc(C(C)Nc2ccccc2)c2nc(N3CCOCC3)cc(=O)n2c1 (centres unmarked) [TGX-221]	14 fold

Same assay, conditions: beta versus gamma; cited from earlier work

SMILES	selective over gamma
Cc1cc(C(C)Nc2ccccc2)c2nc(N3CCOCC3)cc(=O)n2c1 (centres unmarked) [TGX-221]	more than 500 fold

Same assay, conditions: read-out: potency on beta; cited from earlier work

SMILES	IC50
Cc1cc(C(C)Nc2ccccc2)c2nc(N3CCOCC3)cc(=O)n2c1 (centres unmarked) [TGX-221]	7 nM

Molecular target: T1, PI3Kδ (Homo sapiens, UniProt O00329)
T1 construct: Full length p110 subunits of PI3k α, β and δ, N-terminally labeled with polyHis tag; polyHis (N); made in house; host or cells: Sf9 insect cells (baculovirus)
T1 sequence (O00329 whole entry): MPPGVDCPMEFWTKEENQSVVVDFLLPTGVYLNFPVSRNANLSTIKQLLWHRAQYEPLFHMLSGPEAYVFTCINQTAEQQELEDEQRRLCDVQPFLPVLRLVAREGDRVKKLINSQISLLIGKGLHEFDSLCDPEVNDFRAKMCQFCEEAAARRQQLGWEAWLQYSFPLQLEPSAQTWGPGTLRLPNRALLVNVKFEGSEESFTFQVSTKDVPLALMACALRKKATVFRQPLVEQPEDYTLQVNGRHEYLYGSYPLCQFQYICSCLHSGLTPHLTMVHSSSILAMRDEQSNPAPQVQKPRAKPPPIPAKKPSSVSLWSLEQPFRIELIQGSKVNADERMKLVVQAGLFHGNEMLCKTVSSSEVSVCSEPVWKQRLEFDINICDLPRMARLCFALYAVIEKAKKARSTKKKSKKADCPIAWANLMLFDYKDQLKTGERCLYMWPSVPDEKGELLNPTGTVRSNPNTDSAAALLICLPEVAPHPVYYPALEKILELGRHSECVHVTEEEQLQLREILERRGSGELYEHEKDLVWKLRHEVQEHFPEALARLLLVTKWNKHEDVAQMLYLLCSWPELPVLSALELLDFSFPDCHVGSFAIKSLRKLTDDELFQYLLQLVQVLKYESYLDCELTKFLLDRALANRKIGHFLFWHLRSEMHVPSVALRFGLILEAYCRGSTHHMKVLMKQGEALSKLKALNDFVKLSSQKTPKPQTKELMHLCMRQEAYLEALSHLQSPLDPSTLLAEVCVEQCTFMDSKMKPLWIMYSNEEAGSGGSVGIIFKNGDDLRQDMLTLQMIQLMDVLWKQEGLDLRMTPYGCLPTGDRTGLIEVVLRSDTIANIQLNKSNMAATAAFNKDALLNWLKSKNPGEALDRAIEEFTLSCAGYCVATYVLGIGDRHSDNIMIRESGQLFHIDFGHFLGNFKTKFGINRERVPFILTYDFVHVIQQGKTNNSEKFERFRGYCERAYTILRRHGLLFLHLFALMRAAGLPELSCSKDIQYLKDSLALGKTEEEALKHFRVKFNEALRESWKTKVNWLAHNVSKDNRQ
T1 sequence (P27986 whole entry partner): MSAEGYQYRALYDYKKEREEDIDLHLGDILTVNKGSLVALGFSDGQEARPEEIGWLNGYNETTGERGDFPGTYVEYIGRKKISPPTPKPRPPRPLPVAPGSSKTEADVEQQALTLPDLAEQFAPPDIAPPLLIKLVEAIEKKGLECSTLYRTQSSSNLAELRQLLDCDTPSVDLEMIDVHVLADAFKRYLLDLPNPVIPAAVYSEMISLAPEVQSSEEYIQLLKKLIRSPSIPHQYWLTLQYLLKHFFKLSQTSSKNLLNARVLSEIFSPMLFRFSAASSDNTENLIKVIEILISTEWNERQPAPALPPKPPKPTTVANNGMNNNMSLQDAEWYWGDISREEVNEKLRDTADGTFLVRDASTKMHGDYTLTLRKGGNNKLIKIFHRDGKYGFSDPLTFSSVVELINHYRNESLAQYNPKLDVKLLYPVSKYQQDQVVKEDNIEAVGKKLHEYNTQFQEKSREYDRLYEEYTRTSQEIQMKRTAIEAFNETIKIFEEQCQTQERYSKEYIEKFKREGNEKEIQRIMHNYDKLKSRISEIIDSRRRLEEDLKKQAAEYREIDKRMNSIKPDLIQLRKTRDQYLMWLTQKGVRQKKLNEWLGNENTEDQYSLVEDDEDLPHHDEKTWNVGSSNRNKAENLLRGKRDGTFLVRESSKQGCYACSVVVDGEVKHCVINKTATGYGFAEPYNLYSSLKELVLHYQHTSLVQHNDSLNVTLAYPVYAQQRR
Assay: In vitro enzyme assay of recombinant PI3K (residual ATP bioluminescence)
Type: biochemical
Settings: not given
Procedure: Recombinant Expression of PI3Ks
Full length p110 subunits of PI3k α, β and δ, N-terminally labeled with polyHis tag, were coexpressed with p85 with Baculo virus expression vectors in sf9 insect cells. P110/p85 heterodimers were purified by sequential Ni-NTA, Q-HP, Superdex-100 chromatography. Purified α, β and δ isozymes were stored at −20° C. in 20 mM Tris, pH 8, 0.2M NaCl, 50% glycerol, 5 mM DTT, 2 mM Na cholate. Truncated PI3Kγ, residues 114-1102, N-terminally labeled with polyHis tag, was expessed with Baculo virus in Hi5 insect cells. The γ isozyme was purified by sequential Ni-NTA, Superdex-200, Q-HP chromatography. The γ isozyme was stored frozen at −80° C. in NaH2PO4, pH 8, 0.2M NaCl, 1% ethylene glycol, 2 mM β-mercaptoethanol.
Assays were performed in 25 μL with the above final concentrations of components in white polyproplyene plates (Costar 3355). Phospatidyl inositol phosphoacceptor, PtdIns(4,5)P2 P4508, was from Echelon Biosciences. The ATPase activity of the alpha and gamma isozymes was not greatly stimulated by PtdIns(4,5)P2 under these conditions and was therefore omitted from the assay of these isozymes. Test compounds were dissolved in dimethyl sulfoxide and diluted with three-fold serial dilutions. The compound in DMSO (1 μL) was added per test well, and the inhibition relative to reactions containing no compound, with and without enzyme was determined. After assay incubation at room temperature, the reaction was stopped and residual ATP determined by addition of an equal volume of a commercial ATP bioluminescence kit (Perkin Elmer EasyLite) according to the manufacturer's instructions, and detected using a AnalystGT luminometer.

SMILES	IC50
Cc1ccccc1-c1nc2c(C)cccc2cc1COc1ncnc2[nH]ccc12 [Example 14]	56 nM
C[C@H](Nc1ncnc2[nH]cnc12)c1cc2ccc(F)cc2nc1-c1cccs1 [Example 46, N-((S)-1-(7-Fluoro-2-(thiophen-2-yl)quinolin-3-yl)ethyl)-9H-purin-6-amine]	8 nM
CS(=O)(=O)c1ccccc1-c1nc2c(Cl)cccc2cc1CNc1ncnc2[nH]cnc12 [Example 35, N-((8-chloro-2-(2-(methylsulfonyl)phenyl)quinolin-3-yl)methyl)-9H-purin-6-amine]	222 nM
Cc1cccc2nc(CNc3ncnc4[nH]cnc34)c(-c3ccccc3Cl)nc12 [Example 19, N-((3-(2-Chlorophenyl)-5-methylquinoxalin-2-yl)methyl)-9H-purin-6-amine]	66 nM
Cc1cccc2cc(COc3ncnc4[nH]cnc34)c(-c3ccccc3Cl)nc12 [Example 10, 3-((9H-Purin-6-yloxy)methyl)-2-(2-chlorophenyl)-8-methylquinoline]	25 nM
Cc1ccccc1-c1nc2c(C)cccc2cc1CNc1nc(N)nc2[nH]cnc12 [Example 13, N6-((8-Methyl-2-o-tolylquinolin-3-yl)methyl)-9H-purine-2,6-diamine]	82 nM
Cc1cccc2cc(COc3ncnc4[nH]ccc34)c(-c3ccccc3)nc12 [Example 15, 3-((7H-Pyrrolo[2,3-d]pyrimidin-4-yloxy)methyl)-8-methyl-2-phenylquinoline]	68 nM
Cc1cccc2cc(COc3ncnc4[nH]cnc34)c(-c3ccccc3-c3ccccc3)nc12 [Example 8, 3-((9H-Purin-6-yloxy)methyl)-2-(biphenyl)-8-methylquinoline]	22 nM
Cc1cccc2cc(C(C)Nc3ncnc4[nH]cnc34)c(-c3ccccc3Cl)nc12 (centres unmarked) [Example 6, N-(1-(2-(2-Chlorophenyl)-8-methylquinolin-3-yl)ethyl)-9H-purin-6-amine]	31 nM
Cc1cccc2cc(CNc3ncnc4[nH]cnc34)c(-c3ccccc3C(F)(F)F)nc12 [Example 16, N-((8-Methyl-2-(2-(trifluoromethyl)phenyl)quinolin-3-yl)methyl)-9H-purin-6-amine]	91 nM
Fc1cccc(-c2nc3c(Cl)cccc3cc2CNc2ncnc3[nH]cnc23)c1 [Example 31, N-((8-Chloro-2-(3-fluorophenyl)quinolin-3-yl)methyl)-9H-purin-6-amine]	74 nM
Cc1cccc2nc(-c3ccccc3Cl)c(CNc3ncnc4[nH]cnc34)nc12 [Example 18, N-((3-(2-Chlorophenyl)-8-methylquinoxalin-2-yl)methyl)-9H-purin-6-amine]	325 nM
Fc1ccc2cc(CNc3ncnc4[nH]cnc34)c(-c3ccccc3Cl)nc2c1 [Example 36, N-((2-(2-Chlorophenyl)-7-fluoroquinolin-3-yl)methyl)-9H-purin-6-amine]	225 nM
Cc1ccccc1-c1nc2c(C)cccc2cc1CSc1ncnc2[nH]cnc12 [Example 12, 3-((9H-Purin-6-ylthio)methyl)-8-methyl-2-o-tolylquinoline]	889 nM
COc1cccc(F)c1-c1nc2c(C)cccc2cc1CNc1ncnc2[nH]cnc12 [Example 17, N-((2-(2-Fluoro-6-methoxyphenyl)-8-methylquinolin-3-yl)methyl)-9H-purin-6-amine]	651 nM
C[C@@H](Nc1ncnc2[nH]cnc12)c1cc2cccc(Cl)c2nc1-c1cccc(F)c1 [N-((R)-1-(8-Chloro-2-(3-fluorophenyl)quinolin-3-yl)ethyl)-9H-purin-6-amine]	424 nM
Clc1cccc2cc(CNc3ncnc4[nH]cnc34)c(Oc3ccccc3)nc12 [Example 30, N-((8-Chloro-2-phenoxyquinolin-3-yl)methyl)-9H-purin-6-amine]	125 nM

SMILES	IC50
C[C@H](Nc1ncnc2[nH]cnc12)c1cc2cccc(Cl)c2nc1-c1cscn1 [Example 44, N-((S)-1-(8-Chloro-2-(thiazol-4-yl)quinolin-3-yl)ethyl)-9H-purin-6-amine]	16 nM
Clc1nc(NCc2cc3cccc(Cl)c3nc2-c2ccccc2Cl)c2nc[nH]c2n1 [Example 3, 2-Chloro-N-((8-chloro-2-(2-chlorophenyl)quinolin-3-yl)methyl)-9H-purin-6-amine]	615 nM
Fc1cc(F)cc(-c2nc3c(Cl)cccc3cc2CNc2ncnc3[nH]cnc23)c1 [Example 33, N-((8-Chloro-2-(3,5-difluorophenyl)quinolin-3-yl)methyl)-9H-purin-6-amine]	76 nM
Cc1ccccc1-c1nc2c(C)cccc2cc1C(C)Oc1ncnc2[nH]cnc12 (centres unmarked) [Example 5, 3-(1-(9H-Purin-6-yloxy)ethyl)-8-methyl-2-o-tolylquinoline]	12 nM
Clc1ccccc1-c1nc2c(Cl)cccc2cc1CNc1ncnc2[nH]cnc12 [Example 2, N-((8-Chloro-2-(2-chlorophenyl)quinolin-3-yl)-methyl)-9H-purin-6-amine]	68 nM
Fc1ccc2nc(-c3ccccc3Cl)c(CNc3ncnc4[nH]cnc34)cc2c1 [Example 37, N-((2-(2-Chlorophenyl)-6-fluoroquinolin-3-yl)methyl)-9H-purin-6-amine]	1680 nM
Cc1ccccc1-c1nc2c(C)cccc2cc1COc1ncnc2c1CC(=O)N2 [Example 20, 4-((8-Methyl-2-o-tolylquinolin-3-yl)methoxy)-5H-pyrrolo[2,3-d]pyrimidin-6(7H)-one]	349 nM
Cc1ccccc1-c1nc2c(C)cccc2cc1CNc1ncnc2[nH]cnc12 [Example 1, N-((8-Methyl-2-o-tolylquinolin-3-yl)methyl)-9H-purin-6-amine]	84 nM
CC[C@H](Nc1ncnc2[nH]cnc12)c1cc2cccc(Cl)c2nc1-c1cccc(F)c1 [Example 42, N-((S)-1-(8-Chloro-2-(3-fluorophenyl)quinolin-3-yl)propyl)-9H-purin-6-amine]	13 nM
Fc1cc2cc(CNc3ncnc4[nH]cnc34)c(-c3ccccc3Cl)nc2cc1F [Example 38, N-((2-(2-Chlorophenyl)-6,7-difluoroquinolin-3-yl)methyl)-9H-purin-6-amine]	551 nM
COc1ccccc1-c1nc2c(C)cccc2cc1COc1ncnc2[nH]cnc12 [Example 7, 3-((9H-Purin-6-yloxy)methyl)-2-(2-methoxyphenyl)-8-methylquinoline]	38 nM
C=CCC(Oc1ncnc2[nH]ccc12)c1cc2cccc(C)c2nc1-c1ccccc1Cl (centres unmarked) [Example 9, 3-(1-(7H-Pyrrolo[2,3-d]pyrimidin-4-yloxy)but-3-enyl)-2-(2-chlorophenyl)-8-methylquinoline]	28 nM
Clc1cccc2cc(CNc3ncnc4[nH]ccc34)c(-c3ccccc3)nc12 [Example 32, N-((8-chloro-2-phenylquinolin-3-yl)methyl)-7H-pyrrolo[2,3-d]pyrimidin-4-amine]	270 nM
Fc1ccc(OCc2ccccc2)c(-c2nc3c(Cl)cccc3cc2CNc2ncnc3[nH]cnc23)c1 [Example 39, N-((2-(2-(Benzyloxy)-5-fluorophenyl)-8-chloroquinolin-3-yl)methyl)-9H-purin-6-amine]	31 nM
C[C@H](Nc1ncnc2[nH]cnc12)c1cc2cccc(Cl)c2nc1-c1cccc(F)c1 [N-((S)-1-(8-Chloro-2-(3-fluorophenyl)quinolin-3-yl)ethyl)-9H-purin-6-amine]	6 nM
C[C@H](Nc1ncnc2[nH]cnc12)c1nc2cccc(Cl)c2cc1-c1cccc(F)c1 [Example 43, N-((S)-1-(5-Chloro-3-(3-fluorophenyl)quinolin-2-yl)ethyl)-9H-purin-6-amine]	5 nM
COc1nc(NCc2cc3cccc(Cl)c3nc2-c2ccccc2Cl)c2cc[nH]c2n1 [Example 4, N-((8-Chloro-2-(2-chlorophenyl)quinolin-3-yl)methyl)-2-meth-oxy-7H-pyrrolo[2,3-d]pyrimidin-4-amine]	5420 nM

Test system: human B cells
Assay: Human B cells proliferation stimulated by anti-IgM (3H thymidine)
Type: cell-based
Settings: Homo sapiens, B-cell, 72 h, purified human B cells, anti-Human IgM + CD40L-LZ
How it was run: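 Human B cells were magnetically purified from PBMCs and plated at 50000/well in DMEM+5% FCS. Medium containing 250 ng/mL CD40L-LZ and 2 μg/mL anti-IgM was combined with PI3K inhibitor medium, and cells were incubated 72 h at 37° C. Proliferation was read by 0.5-1 uCi/well ^3H thymidine pulse (~18 h).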

SMILES	IC50
C[C@H](Nc1ncnc2[nH]cnc12)c1cc2cccc(Cl)c2nc1Oc1ccccc1 [N-((1S)-1-(8-chloro-2-phenoxy-3-quinolinyl)ethyl)-9H-purin-6-amine]	29.3 nM
C[C@H](Nc1ncnc2[nH]cnc12)c1cc2cccc(Cl)c2nc1-c1ncccn1 [N-((1S)-1-(8-chloro-2-(2-pyrimidinyl)-3-quinolinyl)ethyl)-9H-purin-6-amine]	90.4 nM
C[C@H](Nc1ncnc2[nH]cnc12)c1cc2cccc(Cl)c2nc1-c1cccc(Cl)c1 [N-((1S)-1-(8-chloro-2-(3-chlorophenyl)-3-quinolinyl)ethyl)-9H-purin-6-amine]	5.52 nM
